Values joined by “and” are separate entries in the source; they are usually repeats but may differ in a detail not shown here. Identical values can stand only once.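 Five compound concentrations were applied to cells in 96-well plates for 48 hours; endpoints were derived by simple linear interpolation of the resulting dose-response curve. The concentration for 50% growth inhibition is given as GI50. TGI marks complete inhibition of growth.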
Experiments:
Assay in all cases: NCI tumour cell line growth inhibition, 48 h
ACHN renal = tested on: ACHN renal
CAKI-1 renal = tested on: CAKI-1 renal
CCRF-CEM leukemia = tested on: CCRF-CEM leukemia
OVCAR-5 ovarian = tested on: OVCAR-5 ovarian
SF-268 CNS = tested on: SF-268 CNS
SF-295 CNS = tested on: SF-295 CNS
SK-MEL-5 melanoma = tested on: SK-MEL-5 melanoma
SN12C renal = tested on: SN12C renal
SW-620 colon = tested on: SW-620 colon
UACC-62 melanoma = tested on: UACC-62 melanoma

| Structure (SMILES) | GI50 (ACHN renal) | TGI (ACHN renal) | GI50 (CAKI-1 renal) | TGI (CAKI-1 renal) | GI50 (CCRF-CEM leukemia) | GI50 (OVCAR-5 ovarian) | TGI (OVCAR-5 ovarian) | GI50 (SF-268 CNS) | TGI (SF-268 CNS) | GI50 (SF-295 CNS) | TGI (SF-295 CNS) | GI50 (SK-MEL-5 melanoma) | TGI (SK-MEL-5 melanoma) | GI50 (SN12C renal) | TGI (SN12C renal) | GI50 (SW-620 colon) | TGI (SW-620 colon) | GI50 (UACC-62 melanoma) | TGI (UACC-62 melanoma) | TGI (CCRF-CEM leukemia) |
| --- | --- | --- | --- | --- | --- | --- | --- | --- | --- | --- | --- | --- | --- | --- | --- | --- | --- | --- | --- | --- |
| NC(=O)C1(N2CCCCC2)CCN(CCCC(=O)c2ccc(F)cc2)CC1 | 12.2 µM | > 100 µM | 26.6 µM | > 100 µM | 0.121 µM | 6.96 µM | > 100 µM | 2.6 µM | > 70.9 µM | 2.7 µM | > 100 µM | 0.158 µM | 12.6 µM | 5.24 µM | > 100 µM | 0.173 µM | > 100 µM | 0.219 µM | > 100 µM | – |
| CNC(SC)=C1C(=O)OC(C)(C)OC1=O | – | > 100 µM | – | > 100 µM | – | – | > 100 µM | – | > 100 µM | – | > 100 µM | – | > 100 µM | – | > 100 µM | – | 38.5 µM | – | > 100 µM | > 100 µM |
| COc1cc2cnc3c4ccccc4ccc3c2cc1OC | – | > 100 µM | – | > 100 µM | – | – | > 100 µM | – | > 100 µM | – | > 100 µM | – | > 100 µM | – | > 100 µM | – | > 100 µM | – | > 100 µM | > 100 µM |
| CCCCCCCCCCCCCC(=O)OCC1OC(=O)CC1O (centres undefined) | – | > 100 µM | – | > 100 µM | – | – | > 100 µM | – | > 100 µM | – | > 100 µM | – | > 100 µM | – | > 100 µM | – | > 100 µM | – | > 100 µM | > 100 µM |
| CSc1c(C)c(C)nn1-c1ccccc1 | – | > 100 µM | – | > 100 µM | – | – | > 100 µM | – | > 100 µM | – | > 100 µM | – | > 100 µM | – | > 100 µM | – | > 100 µM | – | > 100 µM | > 100 µM |
| OC(CN1CC1)C(O)CN1CC1 (centres undefined) | > 50 µg/mL | > 50 µg/mL | > 50 µg/mL | > 50 µg/mL | > 50 µg/mL | > 50 µg/mL | > 50 µg/mL | > 50 µg/mL | > 50 µg/mL | > 50 µg/mL | > 50 µg/mL | > 50 µg/mL | > 50 µg/mL | > 50 µg/mL | > 50 µg/mL | > 50 µg/mL | > 50 µg/mL | > 50 µg/mL | > 50 µg/mL | > 50 µg/mL |
| COc1ccc(Nc2nc3ccccc3nc2-c2cccs2)cc1 | – | > 100 µM | – | > 100 µM | – | – | > 100 µM | – | > 100 µM | – | > 100 µM | – | > 100 µM | – | > 100 µM | – | > 100 µM | – | > 100 µM | > 100 µM |
| O=C1C(SCCO)=C(SCCO)C(=O)c2ccccc21 | – | 2.26 µM | – | 4.24 µM | – | – | 2.81 µM | – | 3.21 µM | – | 2.97 µM | – | 0.653 µM | – | 3.06 µM | – | 1.47 µM | – | 2.84 µM | 4.8 µM |
| O=S1(=O)NCCCN1CCNc1nccc(-c2c(-c3cccc(O)c3)nc3sccn23)n1 | 11.8 µM | > 100 µM | 17.4 µM | > 94 µM | 13.5 µM | 49.8 µM | > 100 µM | 24.4 µM | > 100 µM | 51.9 µM | > 100 µM | 1.71 µM | 17.3 µM | 10.2 µM | > 100 µM | 33 µM | > 100 µM | 0.0873 µM | 5.66 µM | > 100 µM |
| C=C(CN1CCc2ccccc2C1)c1ccc(C(=O)Nc2ccccc2N)cc1 | 1.01 µM | 3.5 µM | 1.2 µM | 7.69 µM | 1.96 µM | 2.64 µM | > 20.2 µM | 1.87 µM | 9.74 µM | 1.27 µM | 3.53 µM | 1.61 µM | 6.86 µM | 0.978 µM | 5.32 µM | 1.87 µM | > 42.8 µM | 0.821 µM | 3.3 µM | 12.7 µM |
| O=C(/C=C/c1ccccc1)CC(c1ccccc1)N1CCOCC1 (centres undefined) | 2.03 µM | 4.4 µM | 3.38 µM | 12.9 µM | 2.42 µM | 9.79 µM | 22.1 µM | 5.07 µM | 19.3 µM | 2.7 µM | 10.5 µM | 4.87 µM | 17.5 µM | 4.25 µM | 14.8 µM | 2.33 µM | 4.91 µM | 9.07 µM | 21.8 µM | 7.3 µM |
| Cc1ccc(S(=O)(=O)N/N=C(\c2nc3ccc([N+](=O)[O-])cc3[nH]c2=O)C(O)c2ccccc2Cl)cc1 (centres undefined) | – | > 100 µM | – | > 100 µM | – | – | > 100 µM | – | > 100 µM | – | > 100 µM | – | > 100 µM | – | > 100 µM | – | > 100 µM | – | > 100 µM | > 100 µM |
| CCC(=C(c1ccc(OCCCN(C)C)cc1)c1ccc(OCCCN(C)C)cc1)c1ccc(Cl)cc1 | 0.469 µM | 1.36 µM | 0.56 µM | 2.19 µM | 0.392 µM | 2.48 µM | 4.8 µM | 1.04 µM | 2.72 µM | 2.35 µM | 4.61 µM | 2.02 µM | 4.37 µM | 2.18 µM | 4.55 µM | 0.314 µM | 0.648 µM | 0.345 µM | 0.782 µM | 1.13 µM |
| Cc1cc(N(CCC#N)CCC#N)ccc1/C=C1N=C(/C=C/c2ccccc2)OC(=O)N\1 | – | > 100 µM | – | > 100 µM | – | – | > 100 µM | – | > 100 µM | – | 41.3 µM | – | > 100 µM | – | > 100 µM | – | > 100 µM | – | > 100 µM | > 100 µM |
| C[n+]1c2ccccc2cc2c(CNC(CCCN=C(N)N)C(=O)O)cccc21 (centres undefined) | 0.486 µM | 1.83 µM and 2.05 µM | – | 2.07 µM | – | 14.4 µM | 27.4 µM | 0.394 µM | 0.846 µM and 1.47 µM | 5.03 µM | 17.5 µM | 5.33 µM | 17.8 µM | – | 2.18 µM and 2.99 µM | – | 1.78 µM | – | 2.32 µM | 0.555 µM |
| C[C@H](Cn1ncnn1)Nc1ncc2cc(Oc3ccc(F)cc3F)c(=O)n(C)c2n1 | > 25 µM | > 25 µM | > 25 µM | > 25 µM | > 25 µM | > 25 µM | > 25 µM | > 25 µM | > 25 µM | > 25 µM | > 25 µM | > 25 µM | > 25 µM | > 25 µM | > 25 µM | > 25 µM | > 25 µM | > 25 µM | > 25 µM | > 25 µM |
